Laboratory results reported in patent US6753182B1, “Cryopreservation of plant cells” (Phyton, Inc., priority 1995, dated 2004).
Where two headings read alike, the source gives them in different places.

Key:
[1] = test system: Taxus cells; assay: Post-thaw viability of cryopreserved Taxus cells (FDA / trypan blue staining); conditions: for Survival: 3% mannitol, vitrified 40/30 ethylene glycol/sorbitol, post-thaw
Procedure: Culturing cells at high density maximizes the productivity of the cell culture process. […] Cell viability was determined by staining with a 0.05% fluorescein diacetate (FDA) in acetone (J. M. Widholm, Stain Technol 47:189-94, 1972) followed by counting the number of green fluorescein cells upon excitation with blue light in a fluorescence microscope.
After 3 days of incubation in growth medium with mannitol, cells were cold acclimated at 4° C. for 3 hours. Acclimated cells were harvested and transferred to 4 ml cryovials containing a cold vitrifying solution of 40/30 wt % ethylene glycol/sorbitol in media. The vials were incubated at 4° C. for 3 minutes and frozen by immersion into liquid nitrogen. Vials were maintained in liquid nitrogen for at least 10 minutes before use in the thawing experiments.
Vials of frozen cells were removed from liquid nitrogen storage and agitated at 40° C. until the contents are liquefied (1-2 minutes). The liquefied cells were then washed 5 to 6 times with sterile media containing 1 M sorbitol, 3 times with media containing 0.5 M sorbitol media, 3 times with 0.1 M sorbitol media, and 3 times with sorbitol free media. Washing was performed by resuspension of cells in wash media, centrifugation at 50×g for 2 minutes and aspiration of wash media from the cell pellet. Cell viability was determined immediately after thawing.
Various osmotic agents in growth medium were evaluated to determine their effects on the survival of Taxus species cells precultured with the agents, after the preculture period and after thawing of the cryoprotected and frozen Taxus cell suspensions. Cells of three-day cell culture suspensions were precultured in growth medium containing various osmotic agents prior to cryoprotection. Cryoprotected cells were frozen and stored in liquid nitrogen for a minimum of one hour. Viability tests were performed at the end of the preculture period (control) and immediately after thawing of the cryoprotected and frozen cell.
Taxus cells were harvested from cell culture and the biomass resuspended in growth medium containing mannitol at a concentration of 3% for one day or three-days at room temperature. Loaded cells were incubated at 4° C. for 3 hours and transferred to 4 ml cryovials containing cold vitrifying solution comprising 40/30 weight percent ethylene glycol/sorbitol in culture medium. The vials were incubated at 4° C. for three minutes and frozen by liquid nitrogen immersion. Cells contained in the vials were maintained in liquid nitrogen for at least 10 minutes.
Cryopreserved cells were thawed and their viability was determined by FDA and tryptan blue staining procedures.
Cultured Tarus cells were harvested and resuspended in fresh growth medium containing 3% mannitol for 3 days. Cells were cold acclimated for 3 hours and transferred to cryovials containing vitrification solution. Cell suspensions were frozen by liquid nitrogen immersion. Liquid nitrogen frozen cells were thawed by agitating the cryovials in a 40° C. water bath for 1-2 minutes.

[2] = test system: Taxus species cell line KS1A; assay: Post-thaw viability of cryopreserved Taxus cell line KS1A (FDA staining); assay type: cell-based
Procedure: (§1) Cells of Taxus suspension cultures (KS1A) were harvested and precultured with various osmotic agents in the medium. Osmotic agents tested include trehalose, proline, sorbitol (0.15 M-0.8 M), sucrose (2-20%) and mannitol (0.16 M). Viability was evaluated for each cell suspension at the end of the preculture period and immediately after thawing. Regrowth was evaluated after post-thaw osmotic adjustment. The vitrification solutions used were ethylene glycol/sorbitol/pectin and ethylene glycol/sorbitol at 40/30 weight percent in culture medium.
Six to seven day cell suspensions of Taxus species cell line KS1A were pretreated with 3% mannitol for three days at room temperature. Loaded cells were acclimated to the cold by incubating the flasks at 4° C. for 3 hours. Cold acclimated cells were transferred to 4 ml cryovials and cold vitrification solution was added to each and mixed. After vitrification at 4° C. for three minutes, cells were frozen liquid nitrogen immersion. Vials were maintained in liquid nitrogen for at least 10 minutes.
Cryopreserved cells were thawed by transferring vials from liquid nitrogen and agitated in a 40° C. water bath for 1-2 minutes. Post-thaw viability was determined by FDA staining assay.

[3] = test system: Taxus cells; assay: Viability of Taxus cells at end of preculture period (before freezing); assay type: cell-based, Taxus species; conditions: end of preculture period with the osmotic agent, not frozen
[4] = test system: Taxus suspension cultures (KS1A); assay: Viability of Taxus KS1A cells at end of preculture period; assay type: cell-based, Taxus species
Procedure: as §1

[5] = test system: microtubles of mammalian cells; conditions: cited from earlier work
[6] = test system: refractory ovarian, breast and other cancers; conditions: clinical trials; cited from earlier work
[7] = test system: Taxus cells; assay: Regrowth of Taxus cells after thawing and osmotic adjustment; assay type: cell-based, Taxus species; conditions: after thawing
[8] = test system: Taxus cells; assay: as above; assay type: cell-based, Taxus species; conditions: after thawing; remark: listed apart in the source
Procedure: Cell viability was determined immediately after thawing. The summary of multiple experiments is listed below.
Six to seven day old cell suspensions in growth medium were harvested and the cell biomass resuspended in fresh growth medium containing 0.06 M, 0.12 M, 0.15 M, 0.29 M and 0.58 M sucrose. Cells were cryopreserved, frozen, thawed and osmotically adjusted accordingly. Cell viability was determined immediately after thawing.

[9] = test system: Taxus species cell line 12-6; assay: Cell viability and growth before and after cryopreservation, line 12-6; assay type: cell-based; conditions: 3% mannitol 3 days, before freezing
Procedure: (§2) Six to seven day old cell suspensions of each cell line were harvested and the biomass resuspended in fresh growth medium containing 3% mannitol. Cells were incubated for 3 days at room temperature and thereafter the loaded cells suspensions were incubated at 4° C. for from 3 hours. Cold acclimated cells were transferred to 4 ml cryovials containing a cold vitrification solution of ethylene glycol/sorbitol 40/30 wt %. The vitrification solution and cells were gently mixed and the vials were incubated at […] for 3 minutes. Thereafter, the cell suspensions were frozen by liquid nitrogen immersion for at least 10 minutes.
(§3) After freezing, the cells were thawed by transferring the frozen vials from liquid nitrogen to a 40° C. water bath for 1-2 minutes. Post-thaw cell viability was determined by FDA staining assay. Cells were washed 5-6 times with cold sterile 1M sorbitol media and resuspended in fresh 1 M in medium.
(§4) The cell suspensions free from toxic cryoprotectants were then each separately filtered using a buchner funnel and Whatmann 541 filter paper under sterile conditions. For each cell suspension, the filter with cells was layered on semisolid growth medium containing 0.5M sorbitol and equilibrated for 30 minutes at room temperature. Paper containing cells was transferred to solid growth medium containing 0.1M sorbitol and incubated for 24 hours. […]

[10] = test system: Taxus species cell line 1220; assay: Cell viability and growth before and after cryopreservation, line 1220; assay type: cell-based; conditions: 3% mannitol 3 days, before freezing
Procedure: as §2, §3, §4

[11] = test system: Taxus species cell line KEIR; assay: Cell viability and growth before and after cryopreservation, line KEIR; assay type: cell-based; conditions: 3% mannitol 3 days, before freezing
Procedure: as §2, §3, §4

[12] = test system: Taxus species cell line 647; assay: Cell viability and growth before and after cryopreservation, line 647; assay type: cell-based; conditions: 3% mannitol 3 days, before freezing
Procedure: as §2, §3, §4

[13] = test system: Taxus species cell line KS1A; assay: Cell viability and growth before and after cryopreservation, line KS1A; assay type: cell-based; conditions: 3% mannitol 3 days, before freezing
Procedure: as §2, §3, §4

[14] = test system: Taxus species cell line 1224; assay: Cell viability and growth before and after cryopreservation, line 1224; assay type: cell-based; conditions: 3% mannitol 3 days, before freezing
Procedure: as §2, §3, §4

[15] = test system: Taxus species cell line 12-14; assay: Cell viability and growth before and after cryopreservation, line 12-14; assay type: cell-based; conditions: 3% mannitol 3 days, before freezing
Procedure: as §2, §3, §4

[16] = cryoprotectant in vitrification solution: DMSO 5%-30%, propylene glycol 15%, glycerol 20%-30%, PEG-8000 10%, ethylene glycol 20%-50%, 3% mannitol 3 days, after −196° C. storage
[17] = cryoprotectants ethylene glycol/sorbitol 40/30 weight percent, immediately after thawing, sorbitol 0.15 M-0.8 M, sucrose 2%-20%, mannitol 0.16 M
[18] = end of preculture with osmotic agent (sorbitol 0.15 M-0.8 M, sucrose 2%-20%, mannitol 0.16 M)

## PEG-8000
[1]
  Viability: 0%

## OCC(O)CO [Glycerol, glycerol]
[1]; [16]
  Viability: 0%

## O=C(O)[C@@H]1CCCN1 [Proline, proline]
[2]; Taxus species
  Recovery Viability: <15%
[3]
  Survival (Viability) Control: <50%
[4]; Taxus species
  Viability: 50-95%
[1]; Taxus species
  Survival (Viability) Frozen: <15%

## CC(O)CO (centres unmarked) [Propylene Glycol, propylene glycol]
[1]; [16]
  Viability: 0%

## C[S+](C)[O-] [DMSO, dimethylsulfoxide]
[1]; [16]
  Viability: ≦15%

## OC[C@H]1O[C@H](O[C@H]2O[C@H](CO)[C@@H](O)[C@H](O)[C@H]2O)[C@H](O)[C@@H](O)[C@@H]1O [Trehalose, trehalose]
[3]
  Survival (Viability) Control: 50-95%
[1]; Taxus species
  Survival (Viability) Frozen: <15%

## CC(=O)O[C@H]1C(=O)[C@@]2(C)[C@H]([C@H](OC(=O)c3ccccc3)[C@]3(O)C[C@H](OC(=O)[C@H](O)[C@@H](NC(=O)c4ccccc4)c4ccccc4)C(C)=C1C3(C)C)[C@]1(OC(C)=O)CO[C@@H]1C[C@@H]2O [taxol]
[5]
  inhibition of the polymerization of microtubles: effectively inhibits
[6]
  clinical efficacy: extremely effective

## OCCO [Ethylene Glycol, ethylene glycol]
[1]; [16]
  Viability: 25%-80%
[1]; cryoprotectant in vitrification solution: DMSO 5%-30%, propylene glycol 15%, glycerol 20%-30%, PEG-8000 10%, ethylene glycol 20%-50%, 3% mannitol 3 days, after −196° C. storage, listed as ethylene glycol
  Viability: highest viability

## OC[C@@H](O)[C@@H](O)[C@H](O)[C@@H](O)CO [Sorbitol, sorbitol]
[2]; [17]
  Recovery Viability: 30-70%
[3]
  Survival (Viability) Control: 50-95%
[4]; [18]
  Viability: 50-95%
[7]; 0.15 M sorbitol pretreatment
  Regrowth: none
[7]; 0.22 M sorbitol pretreatment
  Regrowth: vigorous
[7]; 0.33 M sorbitol pretreatment
  Regrowth: vigorous
[7]; 0.44 M sorbitol pretreatment
  Regrowth: vigorous
[7]; 0.80 M sorbitol pretreatment
  Regrowth: slight
[1]; Taxus species
  Survival (Viability) Frozen: 30-70%

## OC[C@H]1O[C@@](CO)(O[C@H]2O[C@H](CO)[C@@H](O)[C@H](O)[C@H]2O)[C@@H](O)[C@@H]1O [Sucrose, sucrose]
[8]; 0.06 M sucrose pretreatment
  Regrowth: slight
[8]; 0.12 M sucrose pretreatment
  Regrowth: slight
[8]; 0.15 M sucrose pretreatment
  Regrowth: slight
[8]; 0.29 M sucrose pretreatment
  Regrowth: slight
[8]; 0.58 M sucrose pretreatment
  Regrowth: slight
[2]; Taxus species
  Recovery Viability: <10-40%
[3]
  Survival (Viability) Control: 50-95%
[4]; Taxus species
  Viability: 50-95%
[1]; Taxus species
  Survival (Viability) Frozen: 20-50%

## OC[C@@H](O)[C@@H](O)[C@H](O)[C@H](O)CO [Mannitol, mannitol]
[9]
  Viability (preculture): ≧95%
[10]
  Viability (preculture): ≧95%
[2]; [17]
  Recovery Viability: 40-80%
[2]; cryoprotectants ethylene glycol/sorbitol 40/30 weight percent, immediately after thawing, sorbitol 0.15 M-0.8 M, sucrose 2%-20%, mannitol 0.16 M, listed as mannitol
  Recovery Viability: highest percent viability
[11]
  Viability (preculture): ≧95%
[3]
  Survival (Viability) Control: 50-95%
[12]
  Viability (preculture): ≧95%
[4]; [18]
  Viability: 75-95%
[13]
  Viability (preculture): ≧95%
[14]
  Viability (preculture): ≧95%
[7]; 0.16 M mannitol preculture 3 days
  Regrowth: vigorous
[7]; 0.22 M mannitol preculture 3 days
  Regrowth: slight
[7]; 0.33 M mannitol preculture 3 days
  Regrowth: slight
[7]; 0.44 M mannitol preculture 3 days
  Regrowth: slight
[1]
  Survival (Viability) Frozen: highest percent viability
[1]; 1 day of preculture
  Survival: 50%
[1]; 3 days of preculture
  Survival: 40-80%
[1]; 3 days of preculture, listed as mannitol
  Survival: significantly higher
[1]; Taxus species
  Survival (Viability) Frozen: 40-80%
[1]; Taxus species, 3 days, 0.16 M
  Viability: 60%
[1]; Taxus species, 3 days, 0.22 M
  Viability: 30%
[1]; Taxus species, 3 days, 0.33 M
  Viability: 30%
[1]; Taxus species, 3 days, 0.44 M
  Viability: 20%
[15]
  Viability (preculture): ≧95%
